Assay results published in US12435051B2, “Dual modulator of mGluR5 and 5-HT2A receptor, and use thereof” (Vivozon Inc., priority 2020, dated 2025).
Where two headings read alike, the source gives them in different places.

Experiments:
[1] = system: physical (tactile) allodynia in spinal nerve ligation model; assay: Analgesic efficacy experiment using animal model (Chung model, spinal nerve ligation); assay type: in vivo, Sprague-Dawley rats; conditions: for inhibition in vivo at 100 mg/kg: 100 mpk
Protocol: The Chung model (spinal nerve ligation model) is a representative animal model to study neuropathic pain and is widely accepted as a gold standard for an animal pain model by global pharmaceutical companies around the world.
In this experiment, male Sprague-Dawley rats (100-120 g) purchased from Koatech (Pyeongtaek-si, Gyeonggi-do) were used. Rats were kept in a room maintained at constant temperature and humidity with a 12 hour light-dark cycle. Rats were allowed to eat and drink freely during the experiment.
For the Chung surgery, rats were anesthetized by isoflurane inhalation and the left lumbar nerves L5 and L6 were tightly tied with a suture thread (6-0 silk thread) at the end of the dorsal ganglion and at a front of an entrance to the sciatic nerve according to the article (Kim and Chung (1992), Pain 50(3):355-63). After suturing the incision, the rats were recovered for 2 weeks in the controlled maintenance room to induce physical allodynia in the left hind paw of the rat. To measure physical (tactile) allodynia, the rats were placed in a cage with a wire mesh on the bottom. Stimuli of increasing intensity (using the von Frey filaments in a range of 0.41 to 15.8 g) were placed on the plantar surface on the side of the nerve injury. The stimulus intensity at which the pain response (abrupt lifting, licking or sucking of the foot) was induced was recorded while applying gradual increment of stimuli. As described in the study of Chaplan et al. (1994) (Chaplan et al. (1994) J. Neurosci. Methods 53(1):55-63), the paw withdrawal threshold (PWT) was determined by increasing or decreasing continuous stimulus intensity, and the result was analyzed by applying Dixon's up-down method. Only rats showing no behavior dysfunction (e.g., feet dragging or dropping) were selected and included in the study, and the PWT of the rats used was 3.16 g or less.
After measuring the degree of basic reaction before drug injection, each compound and solvent were injected by oral administration (12.5-100 mg/kg), and the measurement was repeated at regular time intervals (60 and 120 minutes) after the drug was injected.
The experimenter conducted the PWT measurement in a blind condition not knowing which rat was administered with which drug. The control group was administered with gabapentin (65 mg/kg, intraperitoneal administration), and was randomly mixed during the measurement. Statistical analysis was performed on the measured pain response threshold by calculating the reversal rate (% reversal) from pain in Equation 1 below. […] Pain reversal rate (% reversal)=[(PWT after drug administration)−(PWT before drug administration)]*100/[(15 g, Estimated PWT in normal animals)−(PWT before drug administration)] [Equation 1]
The PWT used in this time is a value obtained by multiplying the gram, the unit of “force” measure, by 10,000, and taking the logarithm, which is a method generally used in academia.
Each experiment consisted of the compound group, the solvent group of the compound and the gabapentin (GBP) group as positive control group. As solvent of the compound, 0.5% HPMC (hydroxypropylmethyl cellulose) was used.

[2] = target: T1, human 5-HT2AR (Homo sapiens, UniProt P28223); assay: HTRF-based IP1 accumulation assay (5-HT2AR antagonistic effect); assay type: cell-based; conditions: HEK293 cells overexpressing human 5-HT2AR; serotonin at EC80
T1 construct: expressed in transfected cells; host or cells: HEK293
How it was run: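 HEK293 cells stably overexpressing human 5-HT2AR were pre-incubated with compound (top 10 μM, serial dilutions, LiCl buffer) 10 min at room temperature, then stimulated with EC80 serotonin 30 min at 37 °C. IP1 accumulation was read by HTRF; IC50s came from activity normalized to serotonin and IP1 controls.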

[3] = target: T2, mGluR5 (Homo sapiens, UniProt P41594); assay: Fluorescence-based Ca2+ mobilization assay; assay type: cell-based; conditions: HEK293 cells overexpressing mGluR5; L-glutamate at EC80
T2 construct: expressed in transfected cells; host or cells: HEK293
How it was run: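 HEK293 cells stably overexpressing mGluR5, dye-loaded 60 min at 37 °C, then preincubated with compound 30 min at room temperature in the dark. Ca2+ response to L-glutamate at EC80 read on FLIPR for 2 min. Signal normalised to glutamate (100%) and vehicle (0%); IC50 from % inhibition.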

[4] = rat, oral, 1 h, read-out: % reversal (1 h)
[5] = rat, oral, 2 h, read-out: % reversal (2 h)
[6] = rat, oral, 50 mpk, 1 h, read-out: % reversal (1 h)
[7] = rat, oral, 50 mpk, 2 h, read-out: % reversal (2 h)
[8] = Rattus norvegicus, po, 1 h, read-out: % reversal (1 h)
[9] = Rattus norvegicus, po, 2 h, read-out: % reversal (2 h)
[10] = rat, oral, 25 mpk, 1 h, read-out: % reversal (1 h)
[11] = rat, oral, 25 mpk, 2 h, read-out: % reversal (2 h)

T1 sequence (P28223 whole entry): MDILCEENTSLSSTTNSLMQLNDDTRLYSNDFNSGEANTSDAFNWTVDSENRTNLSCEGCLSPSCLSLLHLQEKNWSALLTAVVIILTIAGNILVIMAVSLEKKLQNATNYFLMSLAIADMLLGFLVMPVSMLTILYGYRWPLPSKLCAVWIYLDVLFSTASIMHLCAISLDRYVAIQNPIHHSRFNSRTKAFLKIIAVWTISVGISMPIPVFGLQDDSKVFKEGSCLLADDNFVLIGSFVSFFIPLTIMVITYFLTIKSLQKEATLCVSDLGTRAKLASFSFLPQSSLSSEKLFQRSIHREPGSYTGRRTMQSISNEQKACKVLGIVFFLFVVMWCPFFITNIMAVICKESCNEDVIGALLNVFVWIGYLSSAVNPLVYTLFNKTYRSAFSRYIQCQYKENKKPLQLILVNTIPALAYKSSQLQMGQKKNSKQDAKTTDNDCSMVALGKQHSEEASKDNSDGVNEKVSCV
T2 sequence (P41594 21-1212): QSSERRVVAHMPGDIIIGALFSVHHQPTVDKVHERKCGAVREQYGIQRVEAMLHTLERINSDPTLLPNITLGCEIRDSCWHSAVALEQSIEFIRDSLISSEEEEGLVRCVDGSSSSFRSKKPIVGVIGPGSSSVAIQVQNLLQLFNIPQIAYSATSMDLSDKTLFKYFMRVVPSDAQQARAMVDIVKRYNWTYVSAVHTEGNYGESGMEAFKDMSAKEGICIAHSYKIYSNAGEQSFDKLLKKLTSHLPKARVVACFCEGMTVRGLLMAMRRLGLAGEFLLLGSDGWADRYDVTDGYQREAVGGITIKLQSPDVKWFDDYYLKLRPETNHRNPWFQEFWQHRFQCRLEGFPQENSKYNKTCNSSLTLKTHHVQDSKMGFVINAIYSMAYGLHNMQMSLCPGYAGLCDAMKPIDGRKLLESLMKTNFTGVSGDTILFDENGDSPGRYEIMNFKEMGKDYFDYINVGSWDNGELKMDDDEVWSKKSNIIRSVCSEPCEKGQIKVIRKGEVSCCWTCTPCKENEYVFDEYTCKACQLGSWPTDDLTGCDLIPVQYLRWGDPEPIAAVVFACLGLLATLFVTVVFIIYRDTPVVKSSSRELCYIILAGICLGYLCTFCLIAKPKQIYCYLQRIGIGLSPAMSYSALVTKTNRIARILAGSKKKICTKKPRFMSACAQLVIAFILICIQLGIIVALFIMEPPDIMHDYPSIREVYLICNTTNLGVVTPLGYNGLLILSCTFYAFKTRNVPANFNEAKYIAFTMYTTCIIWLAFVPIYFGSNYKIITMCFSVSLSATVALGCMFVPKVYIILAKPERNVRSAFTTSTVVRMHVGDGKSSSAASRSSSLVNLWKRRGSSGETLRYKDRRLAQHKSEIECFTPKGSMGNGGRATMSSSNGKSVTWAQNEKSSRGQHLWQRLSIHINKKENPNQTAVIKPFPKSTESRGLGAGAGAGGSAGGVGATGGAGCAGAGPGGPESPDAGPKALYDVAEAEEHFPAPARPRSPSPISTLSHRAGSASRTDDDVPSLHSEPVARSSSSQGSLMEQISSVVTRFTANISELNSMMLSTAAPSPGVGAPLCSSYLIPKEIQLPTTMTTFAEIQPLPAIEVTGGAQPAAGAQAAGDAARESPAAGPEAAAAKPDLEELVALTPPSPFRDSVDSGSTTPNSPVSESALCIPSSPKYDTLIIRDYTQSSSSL

IC50 [2] [nM]	IC50 [3] [nM]	SMILES	inhibition in vivo at 50 mg/kg [1, 6] [%]	inhibition in vivo at 50 mg/kg [1, 7] [%]	also measured
100 to 500	< 100	CC(NC(=O)c1ccc(C#Cc2ccccc2F)cc1)C1CCOCC1 (centres unmarked) [Example 42, 4-((2-fluorophenyl)ethynyl)-N-(1-(tetrahydro-2H-pyran-4-yl)ethyl)benzamide]			inhibition in vivo at 100 mg/kg [1, 4]: 82.9%; inhibition in vivo at 100 mg/kg [1, 5]: 88.1%
100 to 500	< 100	O=C(NCC1CCCCC1O)c1ccc(C#Cc2ccccc2F)cc1 (centres unmarked) [Example 63, 4-((2-fluorophenyl)ethynyl)-N-((2-hydroxycyclohexyl)methyl)benzamide]	70.9	42.1	
100 to 500	< 100	O=C(NCC1CCOC1)c1ccc(C#Cc2ccccc2F)cc1 (centres unmarked) [Example 43, 4-((2-fluorophenyl)ethynyl)-N-((tetrahydrofuran-3-yl)methyl)benzamide]	72.9	90.8	
< 100	100 to 500	O=C(NCC1(NC2CC2)CCCC1)c1ccc(C#Cc2ccccc2F)cc1 [Example 11, N-((1-(cyclopropylamino)cyclopentyl)methyl)-4-((2-fluorophenyl)ethynyl)benzamide]			inhibition in vivo at 100 mg/kg [1, 4]: 58.7%; inhibition in vivo at 100 mg/kg [1, 5]: 57.4%
500 to 1000	< 100	COC1(CNC(=O)c2ccc(C#Cc3ccccc3F)cc2)CCOCC1 [Example 66, 4-((2-fluorophenyl)ethynyl)-N-((4-methoxytetrahydro-2H-pyran-4-yl)methyl)benzamide]			inhibition in vivo at 25 mg/kg [1, 10]: 64.1%; inhibition in vivo at 25 mg/kg [1, 11]: 43.2%
100 to 500	100 to 500	O=C(NC[C@@H]1CCCO1)c1ccc(C#Cc2ccccc2F)cc1 [Example 46, (S)-4-((2-fluorophenyl)ethynyl)-N-((tetrahydrofuran-2-yl)methyl)benzamide]			inhibition in vivo at 100 mg/kg [1, 4]: 73%; inhibition in vivo at 100 mg/kg [1, 5]: 99.8%
100 to 500	100 to 500	O=C(NCC1CCOC1)c1ccc(C#Cc2ccc(F)cc2)cc1 (centres unmarked) [Example 94, 4-((4-fluorophenyl)ethynyl)-N-((tetrahydrofuran-3-yl)methyl)benzamide]	74.2	97.7	
< 100	500 to 1000	O=C(NCC1CCOCC1)c1ccc(C#Cc2ccc(F)cc2F)cc1 [Example 44, 4-((2,4-difluorophenyl)ethynyl)-N-((tetrahydro-2H-pyran-4-yl)methyl)benzamide]	3.45	9.13	
100 to 500	1000 to 2000	O=C(NCC1(NC2CC2)CCCCCC1)c1ccc(C#Cc2ccccn2)cc1 [Example 1, N-((1-(cyclopropylamino)cycloheptyl)methyl)-4-(pyridin-2-ylethynyl)benzamide]			inhibition in vivo at 100 mg/kg [1, 4]: 60.5%; inhibition in vivo at 100 mg/kg [1, 5]: 85.7%
100 to 500	< 100	CC1(CNC(=O)c2ccc(C#Cc3ccc(F)cc3)cc2)COC1 [Example 83, 4-((4-fluorophenyl)ethynyl)-N-((3-methyloxetan-3-yl)methyl)benzamide]			inhibition in vivo at 25 mg/kg [1, 10]: 55%; inhibition in vivo at 25 mg/kg [1, 11]: 67.8%
100 to 500	100 to 500	O=C(NCC1(NC2CC2)CCC1)c1ccc(C#Cc2ccncc2)cc1F [Example 10, N-((1-(cyclopropylamino)cyclobutyl)methyl)-2-fluoro-4-(pyridin-4-ylethynyl)benzamide]	44.9	36.1	
100 to 500	100 to 500	O=C(NCC1CCO1)c1ccc(C#Cc2ccccc2F)cc1 (centres unmarked) [Example 58, 4-((2-fluorophenyl)ethynyl)-N-(oxetan-2-ylmethyl)benzamide]			inhibition in vivo at 25 mg/kg [1, 10]: 61.5%; inhibition in vivo at 25 mg/kg [1, 11]: 28.3%
100 to 500	100 to 500	O=C(NCC1(NC2CC2)CCC1)c1ccc(C#Cc2ccncc2)cc1 [Example 5, N-((1-(cyclopropylamino)cyclobutyl)methyl)-4-(pyridin-4-ylethynyl)benzamide]	43.1	34.4	
100 to 500	< 100	CCC1(CNC(=O)c2ccc(C#Cc3ccccc3F)cc2)COC1 [Example 72, N-((3-ethyloxetan-3-yl)methyl)-4-((2-fluorophenyl)ethynyl)benzamide]	41.9	71.8	
100 to 500	< 100	O=C(NCC1(CO)CCCCC1)c1ccc(C#Cc2ccccc2F)cc1 [Example 37, 4-((2-fluorophenyl)ethynyl)-N-((1-(hydroxymethyl)cyclohexyl)methyl)benzamide]			inhibition in vivo at 100 mg/kg [1, 4]: 37.1%; inhibition in vivo at 100 mg/kg [1, 5]: 18.8%
100 to 500	500 to 1000	O=C(NCC1(NC2CC2)CCCC1)c1ccc(C#Cc2ccc(F)cn2)cc1 [Example 3, N-((1-(cyclopropylamino)cyclopentyl)methyl)-4-((5-fluoropyridin-2-yl)ethynyl)benzamide]	59	87.9	
100 to 500	< 100	O=C(NC[C@H]1CCCO1)c1ccc(C#Cc2ccccc2F)cc1 [Example 45, (R)-4-((2-fluorophenyl)ethynyl)-N-((tetrahydrofuran-2-yl)methyl)benzamide]	77.7	50.6	
100 to 500	< 100	O=C(NCC1COCCO1)c1ccc(C#Cc2ccccc2F)cc1 (centres unmarked) [Example 51, N-((1,4-dioxan-2-yl)methyl)-4-((2-fluorophenyl)ethynyl)benzamide]	5.97	14.5	
500 to 1000	500 to 1000	O=C(NCC1(O)COC1)c1ccc(C#Cc2ccccc2F)cc1 [Example 82, 4-((2-fluorophenyl)ethynyl)-N-((3-hydroxyoxetan-3-yl)methyl)benzamide]	70.3	89.1	

SMILES	IC50 [2] [nM]	IC50 [3] [nM]	inhibition in vivo at 50 mg/kg [1, 6] [%]	inhibition in vivo at 50 mg/kg [1, 7] [%]	also measured
COC1(CNC(=O)c2ccc(C#Cc3ccccc3F)cc2)CCCCC1 [Example 65, 4-((2-fluorophenyl)ethynyl)-N-((1-methoxycyclohexyl)methyl)benzamide]	500 to 1000	< 100			inhibition in vivo at 50 mg/kg [1, 8]: 34%; inhibition in vivo at 50 mg/kg [1, 9]: 80.8%
O=C(NCC1CC(F)(F)C1)c1ccc(C#Cc2ccccc2F)cc1 [Example 56, N-((3,3-difluorocyclobutyl)methyl)-4-((2-fluorophenyl)ethynyl)benzamide]	100 to 500	< 100			inhibition in vivo at 50 mg/kg [1, 8]: 47.4%; inhibition in vivo at 50 mg/kg [1, 9]: 43.6%
O=C(NC[C@H]1CCOC1)c1ccc(C#Cc2ccccc2F)cc1 [Example 69, (R)-4-((2-fluorophenyl)ethynyl)-N-((tetrahydrofuran-3-yl)methyl)benzamide]	500 to 1000	100 to 500			inhibition in vivo at 50 mg/kg [1, 8]: 110%; inhibition in vivo at 50 mg/kg [1, 9]: 110%
O=C(NC[C@H]1CCCOC1)c1ccc(C#Cc2ccccc2F)cc1 [Example 92, (R)-4-((2-fluorophenyl)ethynyl)-N-((tetrahydro-2H-pyran-3-yl)methyl)benzamide]	100 to 500	< 100			inhibition in vivo at 25 mg/kg [1, 8]: 39.8%; inhibition in vivo at 25 mg/kg [1, 9]: 48.7%
